Biological target: AMPK
Assay: AMPK activation, enzyme-linked immunosorbent assay
Type: biochemical
Conditions: Table 8, compounds of Table 1
Method in brief: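 AMPK activation by test compounds was measured by enzyme-linked immunosorbent assay.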

EC50 [nM] | Structure (SMILES)
100 to 500 | O=C(NC1CCN(Cc2ccncc2)CC1)c1cc2cc(OC3CCN(c4ccc(C(F)(F)F)cc4)CC3)ccc2o1 [Compound 1-76, N-(1-(pyridin-4-ylmethyl)piperidin-4-yl)-5-(1-(4-(trifluoromethyl)phenyl)piperidin-4-yloxy)benzofuran-2-carboxamide]
1000 to 5000 | CN(C(=O)c1cc2cc(OC3CCN(c4ccc(C(F)(F)F)cc4)CC3)ccc2o1)C1CCNCC1 [Compound 1-103, N-methyl-N-(piperidin-4-yl)-5-(1-(4-(trifluoromethyl)phenyl)piperidin-4-yloxy)benzofuran-2-carboxamide]
500 to 1000 | O=C(N[C@@H]1CCN(Cc2ccc(F)cc2)C1)c1ccc(OC2CCN(c3ccc(C(F)(F)F)cc3)CC2)cn1 [Compound 1-34, (R)-N-(1-(4-fluorobenzyl)pyrrolidin-3-yl)-5-(1-(4-(trifluoromethyl)phenyl)piperidin-4-yloxy) picolinamide]
100 to 500 | O=C(N[C@@H]1CCN(Cc2cccnc2)C1)c1cc2cc(OC3CCN(c4ccc(C(F)(F)F)cc4)CC3)ccc2o1 [Compound 1-123, (R)-N-(1-(pyridin-3-ylmethyl)pyrrolidin-3-yl)-5-(1-(4-(trifluoromethyl)phenyl)piperidin-4-yloxy)benzofuran-2-carboxamide]
5000 to 10000 | Cc1c(C(=O)NC2CCNCC2)oc2cc(OC3CCN(c4ccc(C(F)(F)F)cc4)CC3)ccc12 [Compound 1-62, 3-methyl-N-(piperidin-4-yl)-6-(1-(4-(trifluoromethyl)phenyl)piperidin-4-yloxy)benzofuran-2-carboxamide]
1000 to 5000 | O=C(NCCCNCc1ccncc1)c1ccc(OC2CCN(c3ccc(C(F)(F)F)cc3)CC2)cn1 [Compound 1-50, N-(3-(pyridin-4-ylmethylamino)propyl)-5-(1-(4-(trifluoromethyl)phenyl)piperidin-4-yloxy)picolinamide]
1000 to 5000 | CC(C)(C)OC(=O)N1CCC(NS(=O)(=O)c2ccc(OC3CCN(c4ccc(C(F)(F)F)cc4)CC3)nc2)CC1 [Compound 1-54, tert-butyl 4-(6-(1-(4-(trifluoromethyl)phenyl)piperidin-4-yloxy)pyridine-3-sulfonamido) piperidine-1-carboxylate]

Same assay, conditions: Table 9, compounds of Table 2

EC50 [nM] | Structure (SMILES)
< 500 | O=C(NC1CCN(Cc2cccnc2)CC1)c1ccc2[nH]c3c(c2c1)CN(Cc1ccc(C(F)(F)F)cc1)CC3 [Compound 2-11, N-(1-(pyridin-3-ylmethyl)piperidin-4-yl)-2-(4-(trifluoromethyl)benzyl)-2,3,4,5-tetrahydro-1H-pyrido[4,3-b]indole-8-carboxamide]

Same assay, conditions: Table 12, compounds of Table 5

EC50 [nM] | Structure (SMILES)
< 1000 | O=C(NC1CCN(Cc2ccccc2)CC1)c1ccc(OC2CCN(Cc3ccc(F)c(F)c3)CC2)c(Cl)c1 [Compound 5-74, N-(1-benzylpiperidin-4-yl)-3-chloro-4-(1-(3,4-difluorobenzyl)piperidin-4-yloxy)benzamide]
1000 to 10000 | N#Cc1cccc(CN2CCC(Oc3cccc(C(=O)NC4CCN(Cc5ccccc5)CC4)c3)CC2)c1 [Compound 5-89, N-(1-benzylpiperidin-4-yl)-3-(1-(3-cyanobenzyl)piperidin-4-yloxy)benzamide]
1000 to 10000 | COC(=O)c1ccc(CN2CCC(Oc3cccc(C(=O)NC4CCN(Cc5ccc(OC)cc5)CC4)c3)CC2)cc1 [Compound 5-112, methyl 4-((4-(3-(l-(4-methoxybenzyl)piperidin-4-ylcarbamoyl)phenoxy)piperidin-1-yl)methyl)benzoate]

Same assay, conditions: Table 13, compounds of Table 6

EC50 [nM] | Structure (SMILES)
100 to 1000 | N#Cc1ccc(CN2CCC(NC(=O)c3cc4cc(NC(=O)c5ccc(-n6cccn6)cc5)ccc4o3)CC2)cc1 [Compound 6-65, 5-(4-(1H-pyrazol-1-yl)benzamido)-N-(1-(4-cyanobenzyl)piperidin-4-yl)benzofuran-2-carboxamide]
< 100 | CS(=O)(=O)c1ccc(CN2CCN(C(=O)c3ccc4oc(C(=O)NC5CCN(Cc6ccc(C#N)cc6)CC5)cc4c3)CC2)cc1F [Compound 6-102]
100 to 1000 | N#Cc1ccc(CN2CCC(NC(=O)c3cc4cc(NC(=O)c5ccc(Oc6ccc(C#N)cn6)cc5)ccc4o3)CC2)cc1 [Compound 6-71, N-(1-(4-cyanobenzyl)piperidin-4-yl)-5-(4-(5-cyanopyridin-2-yloxy)benzamido)benzofuran-2-carboxamide]
< 100 | N#Cc1ccc(CN2CCC(NC(=O)c3cc4cc(CN5CCC(Oc6ccc(C(F)(F)F)cc6)CC5)ccc4o3)CC2)cc1 [Compound 6-27, N-(1-(4-cyanobenzyl)piperidin-4-yl)-5-((4-(4-(trifluoromethyl)phenoxy)piperidin-1-yl)methyl) benzofuran-2-carboxamide]
1000 to 10000 | N#Cc1ccc(CN2CCC(NC(=O)c3cc4cc(NC(=O)c5cnn(Cc6ccc(C#N)cc6)c5)ccc4o3)CC2)cc1 [Compound 6-73, 1-(4-cyanobenzyl)-N-(2-(1-(4-cyanobenzyl)piperidin-4-ylcarbamoyl)benzofuran-5-yl)-1H-pyrazole-4-carboxamide]
100 to 1000 | N#Cc1ccc(CN2CCC(NC(=O)c3cc4cc(C(=O)N5CCC(S(=O)(=O)c6ccc(F)cc6)CC5)ccc4o3)CC2)cc1 [Compound 6-122, N-(1-(4-cyanobenzyl)piperidin-4-yl)-5-(4-(4-fluorophenylsulfonyl)piperidine-1-carbonyl) benzofuran-2-carboxamide]
< 100 | COc1ccc(CN2CCC(NC(=O)c3cc4ccc(C(=O)N5CCN(Cc6ccc(S(C)(=O)=O)cc6)CC5)cc4o3)CC2)cc1 [Compound 6-3, N-(1-(4-methoxybenzyl)piperidin-4-yl)-6-(4-(4-(methylsulfonyl)benzyl)piperazine-1-carbonyl) benzofuran-2-carboxamide]

Same assay, conditions: Table 14, compounds of Table 7

EC50 [nM] | Structure (SMILES)
< 1000 | Cc1nc2cc(OC3CCN(C(=O)c4ccc(C(=O)NC5CCN(Cc6ccc(OC(F)(F)F)cc6)C[C@H]5F)cn4)CC3)ccc2s1 (stereo partly drawn) [Compound 7-51, N-((3,4-trans)-3-fluoro-1-(4-(trifluoromethoxy)benzyl)piperidin-4-yl)-6-(4-(2-methylbenzo[d]thiazol-5-yloxy)piperidine-1-carbonyl)nicotinamide]
1000 to 10000 | COc1ccc(C(=O)C2CCCN(C(=O)c3ccc(C(=O)NC4CCN(Cc5ccc(F)cc5)CC4)cn3)C2)cc1 (centres unmarked) [Compound 7-9, N-(1-(4-fluorobenzyl)piperidin-4-yl)-6-(3-(4-methoxybenzoyl)piperidine-1-carbonyl)nicotinamide]
< 1000 | CS(=O)(=O)c1ccc(OC2CCN(C(=O)c3ccc(C(=O)Nc4ccc(Oc5ccc(C#N)cc5)nc4)cn3)CC2)cc1 [Compound 7-121, N-(6-(4-cyanophenoxy)pyridin-3-yl)-6-(4-(4-(methylsulfonyl)phenoxy)piperidine-1-carbonyl) nicotinamide]
< 1000 | COc1ccc(C(=O)C2CCN(C(=O)c3ccc(C(=O)NC4CCN(Cc5ccc(C#N)c(F)c5)CC4(C)C)cn3)CC2)cc1 (centres unmarked) [Compound 7-86, N-(1-(4-cyano-3-fluorobenzyl)-3,3-dimethylpiperidin-4-yl)-6-(4-(4-methoxybenzoyl)piperidine-1-carbonyl)nicotinamide]
< 1000 | O=C(NC1CCN(Cc2ccc(OC(F)(F)F)cc2)C[C@H]1F)c1ccc(C(=O)N2CCC(C(=O)c3ccc(N4CCOCC4)cc3)CC2)nc1 (stereo partly drawn) [Compound 7-53, N-((3,4-trans)-3-fluoro-1-(4-(trifluoromethoxy)benzyl)piperidin-4-yl)-6-(4-(4-morpholinobenzoyl)piperidine-1-carbonyl)nicotinamide]

Reference: patent US9409884B2 (Rigel Pharmaceuticals, Inc., priority 2012, dated 2016)
